Holding throughout (experiment): DTP human tumour cell line panel, 48 h
The subject of experiment [1] is U251 CNS.
The test system of experiment [2] is NCI-H460 lung.
The test system of experiment [3] is HL-60(TB) leukemia.
The subject of experiment [4] is OVCAR-4 ovarian.
Experiment [5] concerns LOX IMVI melanoma.
Experiment [6] deals with COLO 205 colon.
Experiment [7] relates to EKVX NSCLC.
Experiment [8] concerns ACHN renal.
Experiment [9] has as its system KM12 colon.
Experiment [10] relates to OVCAR-3 ovarian.

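Step 1: Grow cells in 96-well plates. Step 2: Expose to compound for 48 hours at 5 concentrations. Step 3: Interpolate endpoints linearly; if unreached, use highest concentration. At the GI50, growth is halved. TGI: concentration producing complete growth inhibition.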

With `N#Cc1cc2c(=S)[nH]c(=S)[nH]c2nc1SCc1ccccc1`, the GI50 in experiment [1] was 29.5 µM; in experiment [2], 38.8 µM; in experiment [3] it was 30.4 µM; in experiment [4] it was 39.2 µM; in experiment [5], 17.3 µM; in experiment [6] it was 46.2 µM. The GI50 in experiment [7] was 63.3 µM; in [8], 27.4 µM; in experiment [9], 29.2 µM; in [10] it was 65.5 µM. The total growth inhibition concentration (TGI) was > 100 µM in [1]; > 100 µM in experiment [2]; 77.4 µM in experiment [3]; > 100 µM in experiment [4]; 43.4 µM in experiment [5]; > 100 µM in experiment [6]. The total growth inhibition concentration (TGI) in experiment [7], in experiment [8], in [9] and in experiment [10] was > 100 µM in each case.

With `C=C(C)[C@@H]1CC[C@]2(COC(=O)c3ccccc3C(=O)O)CC[C@]3(C)[C@H](CC[C@@H]4[C@@]5(C)CC[C@H](OC(=O)c6ccccc6C(=O)O)C(C)(C)[C@@H]5CC[C@]43C)[C@@H]12`, the GI50 in [1] is 23.1 µM; in experiment [2], 85.1 µM; in [3], > 100 µM; in experiment [4] it was 36.7 µM; in [5] it was 24.6 µM; in [6], > 100 µM. Moreover, the GI50 in [7] was 37.4 µM; in experiment [8], 28 µM; in experiment [9], 8.47 µM; in experiment [10], 17.5 µM. Besides, the TGI in experiment [1] was 77.7 µM; in experiment [2] it was > 100 µM; in experiment [3], > 100 µM; in experiment [4], > 100 µM; in experiment [5], > 100 µM; in experiment [6], > 100 µM. Besides, the TGI in experiment [7] is > 100 µM; in experiment [8] it was > 100 µM; in [9], > 100 µM; in [10], 49.3 µM.

With `COc1ccc(/C=N/C2=NNC(C)(c3ccccc3O)N2C(Cc2c[nH]c3ccccc23)C(=O)O)cc1` (stereo not given), the GI50 in experiment [1] is 3.44 µM; in [2], 2.55 µM; in experiment [3] it was 2.28 µM; in experiment [4] it was 2.26 µM; in experiment [5], 2.68 µM; in experiment [6], 1.86 µM. Moreover, the GI50 in experiment [7] is 1.96 µM; in experiment [8], 3.02 µM; in experiment [9], 2.6 µM; in experiment [10] it was 3.05 µM. Also, the concentration for total growth inhibition (TGI) in experiment [1] stood at 11.6 µM; in experiment [2], 8.51 µM; in [3], 8.9 µM; in experiment [4] it was 15.1 µM; in experiment [5] it was 10.1 µM; in experiment [6], 4.44 µM. Besides, the concentration for total growth inhibition (TGI) was 10.8 µM in experiment [7], 14.7 µM in [8], 10.2 µM in [9] and 11.7 µM in experiment [10].

As to `COc1cc2c3c(n(CCCN=[N+]=[N-])c(=O)c2cc1OC)-c1ccc(NC(C)=O)cc1C3=O`, the GI50 in [1] was > 50 µM; in experiment [2] it was 8.97 µM; in experiment [3], 15 µM; in [4] it was > 50 µM; in [5] it was > 50 µM; in experiment [6], > 50 µM. In addition, the GI50 in experiment [7], in experiment [8], in experiment [9] and in experiment [10] was > 50 µM in each case. The concentration for total growth inhibition (TGI) in [1], in experiment [2], in experiment [3], in experiment [4], in experiment [5] and in [6] was > 50 µM in each case. For the same compound, the TGI in experiment [7], in [8], in [9] and in experiment [10] was > 50 µM in each case.

In the case of `COc1ccc(OC)c(-c2nc3sc(C)cn3c2/C=C2\C(=O)N(C)c3ccccc32)c1`, the GI50 is 22.2 µM in experiment [1]; 18.7 µM in [2]; 11.5 µM in [3]; 34.1 µM in experiment [4]; 17.3 µM in experiment [5]; 25.8 µM in experiment [6]. Further, the GI50 is 32.2 µM in experiment [7], 28.7 µM in experiment [8], 21.9 µM in [9] and 23.6 µM in experiment [10]. In addition, the TGI in [1] is 59.5 µM; in experiment [2], 44.2 µM; in [3], 31.6 µM; in experiment [4], > 100 µM; in [5], 37.9 µM; in experiment [6], 68 µM. Besides, the TGI in [7] is > 100 µM; in [8] it was > 100 µM; in experiment [9] it was 68.5 µM; in experiment [10] it was 62.3 µM.

`CN1CCC(n2cnc(-c3ccc(F)cc3)c2-c2ccnc(Nc3ccccc3)n2)CC1`: the GI50 was 6.7 µM in [1]; 5.39 µM in experiment [2]; 9.65 µM in experiment [3]; 8.12 µM in [4]; 5.78 µM in experiment [5]; 3.34 µM in experiment [6]. The GI50 in experiment [7] was 3.75 µM; in experiment [8] it was 1.14 µM; in experiment [9], 8.11 µM; in experiment [10], 7.65 µM. For the same compound, the TGI is > 25 µM in [1]; > 25 µM in experiment [2]; > 23.2 µM in experiment [3]; > 25 µM in experiment [4]; > 25 µM in [5]; 7.19 µM in experiment [6]. Also, the TGI in experiment [7], in [8], in experiment [9] and in [10] was > 25 µM in each case.

Consider `CCN1C(=O)N[C@H]2[C@@H]3NC(=O)c4ccc(Cl)n4[C@@H]3C[C@]21O`, for which the GI50 was 0.329 µM in [1]; 0.395 µM in experiment [2]; 0.242 µM in [3]; 0.571 µM in experiment [4]; 0.279 µM in [5]; 0.369 µM in [6]. Also, the GI50 in experiment [7] is 1.27 µM; in [8], 1.5 µM; in experiment [9] it was 1.06 µM; in [10], 0.542 µM. For the same compound, the TGI in [1] turned out to be 13.5 µM; in experiment [2], 16.6 µM; in experiment [3], 0.634 µM; in experiment [4], 7.99 µM; in experiment [5], 1.3 µM; in experiment [6] it was 1.56 µM. The TGI in experiment [7] was found to be 6.89 µM; in experiment [8] it was 12.4 µM; in experiment [9], 33.7 µM; in [10] it was 10.3 µM.

By GI50 is commonly meant the concentration at which growth is held to half of that of the control. As a reminder, the TGI is the concentration giving total growth inhibition. The low end stands for greater sensitivity of the cells, the high end for lower sensitivity of the cells.
